Results published in a melting point compilation (Tetko et al.; mined from patent text by program, amines drawn as free bases though some values may be those of a salt).

Compound	melting point [°C]
CCCOC(=O)OC1CSC(Oc2ccc3c(C)cc(=O)oc3c2)C(OC(=O)OCCC)C1OC(=O)OCCC (stereo unspecified)	134
Cc1cccc(OC(C)C)c1S(N)(=O)=O	78
NC(=O)N(O)CC1CCCCCC1	110 to 112
CC(=O)OC1CSC(Oc2ccc(C)nc2C)C(OC(C)=O)C1OC(C)=O (stereo unspecified)	139 to 140
CC(C)CC(NC(c1ccc(-c2ccc(S(C)(=O)=O)cc2)cc1)C(F)(F)F)C(=O)NC(C#N)CC(=O)OCc1ccccc1 (stereo unspecified)	111
COc1ccccc1N1CCN(C(=O)Nc2cc3ccccc3nc2OC)CC1	159 to 161
COC1=C(c2ccccc2)C(CC(=O)O)OC1=O (stereo unspecified)	159 to 160
CCCOc1ccccc1-c1nc2nc(N(C)C)ncc2c(=O)[nH]1	178
COc1cc(C(=O)c2c(F)cccc2F)ccc1O	147 to 149
CCCCCCCCCCCCc1cc(O)ccc1S	75 to 76
N#Cc1ccc(N2CCC(=O)CC2)nc1	171 to 173
Cc1c(-c2ccccc2)c(N2CC(N(C)C)C2)c2oc(C(C)(C)C)nc2c1C#N	211 to 212
COc1cc2c(cc1[N+](=O)[O-])NC(=O)CN(C(=O)C(F)(F)F)C2	204 to 205
COc1ccc(NC(C)=C2C(=O)OC(=O)C(C(C)=O)=C2O)cc1	212 to 214
COCCNC(=O)c1cc(C)nc(-c2cccc3cc(Cc4cccc(C(F)(F)F)c4)sc23)c1	115 to 116
COC(=O)c1cc2ccc(OC)cc2n1CCN1CCC(N)CC1	101
COc1cc(C=CC=NO)ccc1OC(C)=O	72 to 74
COC(=O)Cc1ccccc1OCc1ccc(OCc2nc(-c3ccccc3)sc2C)nc1	119 to 120
CCCCN1CCC(C(=O)O)(S(=O)(=O)c2ccc(OCCC(C)C)cc2)CC1	188
CC12CCC(O)CC1=CCC1C2CCC2(C)C(c3ccsc3)=CCC12 (stereo unspecified)	215 to 219
CC(C(=O)O)c1ccc(CCNC(=O)c2cccc3cccnc23)cc1 (stereo unspecified)	143 to 144
CC(C)c1nc(COC(=O)N[C@@H](C)C(=O)N[C@@H](Cc2ccccc2)C[C@H](O)[C@H](Cc2ccccc2)NC(=O)OCc2cncs2)cs1	59 to 61
Cc1cc(C2(C(F)(F)F)CN(c3ccc(C(=O)NCC(F)(F)F)cc3)CO2)ccc1F (stereo unspecified)	151 to 152
CC1(c2ccccc2)OC(=O)COC1=O (stereo unspecified)	90 to 91
Cc1ccc(S(=O)(=O)OCC(O)(CC(C)(C)c2ccccc2)C(F)(F)F)cc1 (stereo unspecified)	78
O=C(O)c1nc2cc(N3CCCCC3)c([N+](=O)[O-])cc2[nH]c1=O	> 300

Compound	melting point [°C]
COc1ccc(C(=O)c2cccc(F)c2F)c(O)c1Cl	161 to 162
COc1ccc(N2C(=O)N(c3cccc(C(N)=O)c3)c3nc(Nc4cccc(CCN5CCN(C)CC5)c4)ncc3C2C)cc1 (stereo unspecified)	243 to 251
CCNC(=O)N1CCn2nc(-c3ccc(F)cc3)c(-c3ccncc3)c2N1	235 to 240
CC1(C)CC(=O)C(S(=O)Cc2ccc(F)cc2)=C(O)C1 (stereo unspecified)	122 to 125
O=C1CCC(=O)N1Cn1nnc(-c2ccnc(-c3nnn(CN4C(=O)CCC4=O)n3)c2)n1	190 to 192
O=C(C=c1sc2n(c1=O)Cc1ccccc1N=2)NC1CCCCC1	287 to 288
CCCCCOc1cc(-n2c(=O)cc(C(F)(F)F)n(C)c2=O)c(F)cc1Cl	64 to 66
CCOc1cc2cc3ncc(C#N)c(Nc4cc(OC)c(Cl)cc4C)c3cc2cc1OCCN1CCOCC1	195 to 196
CC(C)(C)OC(=O)N=C(NC(=O)OC(C)(C)C)N1CCCC1	88 to 91
CCOC(=O)c1ccc(Cc2ccccc2)cn1	109 to 111
COc1ccc2c(c1)c(C)c(CCCO)n2Cc1ccc(Cl)cc1	118
O=c1c(Br)c(OCc2ccc(F)cc2)ccn1Cc1cccc(F)c1	180 to 183
COC(=O)/C=C(\C)CSc1nc(N)cc(Cl)n1	134 to 136
CCOC(=O)c1cc2c(cn1)[nH]c1ccc(C(C)O)cc12 (stereo unspecified)	125 to 130
CCc1ccc(-c2nn(C)c(=O)c3ccccc23)c(CC)c1	94.5 to 96.5
CNC(=O)c1cc2c(Oc3ccc(CO)cc3)cncc2s1	195 to 196
Brc1cccc(-c2ccccc2)n1	50
O=c1c2c[nH]cc(-c3ccccc3)c-2nn1-c1ccccc1	280 to 285
CCN(CCCCCC(C)O)C(=O)CCC(=O)c1ccc(NS(C)(=O)=O)cc1 (stereo unspecified)	78 to 80
CC1CCc2c(c(-c3ccccc3)nc(=O)n2C(C)C)C1 (stereo unspecified)	175 to 177
N#CCN1C(=O)N(c2ccc(C#N)c(C(F)(F)F)c2)C(=O)C1(CF)CF	125
Cc1ccc2c(c1)C=Cn1c(nnc1S(C)=O)C2 (stereo unspecified)	158 to 159
ClC(Cl)=C1OC(C(Cl)(Cl)Cl)Oc2ccc(-c3nnn[nH]3)cc21 (stereo unspecified)	222
CC(CN(C(=O)c1ccco1)c1c(C)cccc1C)=NO	155 to 156
CN1CCN(Cc2ccc(-c3cc4ncc(C#N)c(Nc5ccc(Oc6ccccc6)cc5)c4s3)cc2)CC1	199 to 201
N#Cc1ccc(-c2ccncc2OC2SCC(O)C(O)C2O)cc1 (stereo unspecified)	238

Compound	melting point [°C]
CS(=O)(=O)c1ccc(Oc2cc(OCc3cccc(Cl)n3)c3[nH]c(C4=NCC(CCO)S4)cc3c2)cc1 (stereo unspecified)	93 to 94
CCOc1cccc(C)c1S(=O)(=O)N=C=O	40
NCCNCCN1CCC(c2cn(-c3ccc(F)cc3)c3ccc(Cl)cc23)CC1	150
N=C(N)Nc1cc(C(=O)O)ccc1N1C(=O)CCC1CO (stereo unspecified)	253 to 257
COc1cccc2c1C(=O)OC2c1ccccc1 (stereo unspecified)	135 to 138
Brc1ccc2nc(Br)nn2c1	201
O=C(c1ccccc1)c1cc2c(s1)S(=O)(=O)CCc1cc(=O)n(-c3ccc(Cl)cc3)nc1-2	254 to 256
COCCOc1ccn(O)c(=O)c1	134
CCCCNC(=O)ON1C(C)(C)CC(OC(=O)C(CC)(CC)C(=O)OC2CC(C)(C)N(OC(=O)NCCCC)C(C)(C)C2)CC1(C)C	166 to 169
CCCCCC(CC(=O)Nc1cc(C(=O)O)ccc1C(C)(C)C)c1ccc(C)cc1OC (stereo unspecified)	164 to 165
Cc1c(-c2ccccc2)oc2c(C(=O)NCCCN3CCN(c4ccccc4OC(F)(F)F)CC3)cccc2c1=O	103 to 112
CC1(C)OC(c2ccc(S(C)(=O)=O)cc2)=C(c2ccc3c(c2)OCO3)C1=O	178 to 179
C#Cc1cc(F)c(-n2c(=O)cc(C(F)(F)F)n(C)c2=O)cc1OCC	140
Cc1ccc2nc(-c3ccc(Cl)cc3)cc(Cl)c2c1	136 to 138
CCCCCCCCCCOc1ccc(Br)cc1OCCCCCCCCCC	39.5 to 40
CCCCCCCCCCCCCCCCOC(=O)CCCCCCCCCCCCCCC	75
O=C(O)Cn1cc(Cc2nc3c(F)c(F)cc(F)c3s2)c2ccc(F)cc21	200 to 203
CN(C(=O)C(F)(F)F)C1(C)CN(c2cc3c(cc2F)c(=O)c(C(=O)O)cn3C2CC2)C1	210 to 215
O=C(O)CCc1ccc2c(c1)CCc1ccc(C(=O)O)cc1S2	233 to 235
Cc1ccc(-c2ccc(/C=C/C(=O)Nc3ccc(CN(C)C4CCOCC4)cc3)s2)cc1	199 to 201
C=CCN(C=CC=C(C#N)C#N)CC=C	50 to 52
Cc1cc(C(C)(C)C)cc(C)c1S(=O)(=O)C[N+](=O)[O-]	90 to 92
COC(=O)CN1C(=O)c2ccc(F)cc2S1(=O)=O	86
O=C(O)c1ccc(C(=C2SCCCS2)c2ccccc2)cc1	261 to 262
Cc1ccc(C(=O)c2ccc3nc(Cl)nc(-c4cccc(Cl)c4)c3c2)cc1	156
NS(=O)(=O)C1C=CC=CC1(CCNC(=O)C=Cc1cccs1)OCc1ccccc1 (stereo unspecified)	177

Compound	melting point [°C]
CCN1CC(=O)C(C#N)=C1N	278 to 280
NNC(=O)C(F)(F)c1cccc(Cl)n1	165 to 167
CCC(=O)Nc1cc(C(C)(C)C)[nH]n1	228 to 229
Cc1cn(Cc2cc(C)c3c(c2)-c2[nH]nc(-c4ccsc4)c2C3)cn1	240 to 242
CCn1ncnc1COc1nn2c(-c3ccccc3F)nncc2c1C(C)(C)CC	89 to 92
O=[N+]([O-])c1cc2nc(O)c(O)nc2c2[nH]nnc12	> 300
Cc1ccc(I)c(I)c1C	175 to 178
O=C(c1cc(C(F)(F)F)cc(C(F)(F)F)c1)N1CCC2(CC1)C(=O)NCN2c1ccccc1	251
CC1c2ccccc2Nc2nccn21 (stereo unspecified)	171 to 172
Cc1cc(OCCCN2CCC[C@H]2C)ccc1C1=NNC(=O)CC1	121 to 123
CS(=O)(=O)CC(=O)N[C@H]1CC[C@H](CCN2CCN(c3nccc4c3OCC4)CC2)CC1	187
CC(=O)N1CCC(CCCCC(=O)c2ccc(F)cc2)CC1	98 to 100
Cn1c(=O)c(-c2c(Cl)cccc2Cl)cc2cnc(Nc3cccnc3)nc21	247 to 248
COc1c(C)cc2c(c1C)Cc1c-2[nH]c2c(C)cc(C)cc12	210
O=c1c2cccc3c2n(c(=O)n1CC(O)CO)-c1cc(C(F)(F)F)ccc1S3(=O)=O (stereo unspecified)	223 to 226
CN(c1cccc2cc(-c3nccs3)[nH]c12)S(=O)(=O)c1ccsc1COCC(=O)O	189
O=P1(Oc2ccccc2)CCCC(CI)O1 (stereo unspecified)	128
CCOP(=O)(CCN1CCC(N(CCCN)S(=O)(=O)c2ccc(Nc3nccc(Nc4ccc(F)cc4)n3)cc2)CC1)OCC	125 to 130
CCn1c(=O)n(CCCCC(C)=O)c(=O)c2cnn(C)c21	112
O=C(O)CCC(=O)c1ccc(-c2ccc(F)cc2)cc1	174 to 176
CCCN(CCC)CCC1=CC(=O)CCC1	95 to 97
CCCCc1ccc(OC)c(-c2csc(NC(=O)c3ccc(C(=O)O)cc3)n2)c1	160
Nc1cc(CO)cc(S(N)(=O)=O)c1Oc1cccc(C(F)(F)F)c1	133 to 134
